Patent US8586625B2, “Derivatives of taxol and closely related compounds” (priority 2008, dated 2013)
Converted amounts (≈) assume the structure as drawn. “Also recorded” adds a separate entry of the source.

How the values were obtained:
A549 lung cancer = test: MTT proliferation assay, in vitro cytotoxicity; assay type: cell-based; details: Homo sapiens, FIG. 3e, read-out: Calculated EC50
Method: (§1) Cancer cells, HeLa, Caco-2, PC3 prostate, CAPAN, A549, SKBR3 were maintained in a humidified atmosphere at 37° C. and gassed with 5% CO2 in air in air. The cells were incubated with various concentrations of paclitaxel and PACLP. The in vitro cytotoxicity of the drugs was measured by a proliferation assay utilizing tetrazolium dye, MTT ([3-(4,5-[…])-2,5 diphenyl tetrazolium bromid). The experiments were carried out with cells in the exponential growth phase.
(§2) Results of these experiments are presented in graphs 3a-3f, indicating the IC50, (the concentration found to inhibit about fifty percent of the growth of the cancer cell lines).

CAPAN = test: MTT proliferation assay, in vitro cytotoxicity; assay type: cell-based; details: 72 h, FIG. 3d, read-out: calculated EC50
Method: as §1, §2

[1] = test system: Caco-2 carcinoma of the colon; test: MTT proliferation assay, in vitro cytotoxicity; assay type: cell-based; details: Homo sapiens, FIG. 3b, read-out: calculated EC50
Method: as §1, §2

HeLa cell line = test: MTT proliferation assay, in vitro cytotoxicity; assay type: cell-based; details: Homo sapiens, FIG. 3a, read-out: calculated EC50
Method: as §1, §2

PC3 prostate carcinoma = test: MTT proliferation assay, in vitro cytotoxicity; assay type: cell-based; details: FIG. 3c, read-out: calculated EC50
Method: as §1, §2

SKBR3 breast carcinoma = test: MTT proliferation assay, in vitro cytotoxicity; assay type: cell-based; details: Homo sapiens, SK-BR-3, FIG. 3f, read-out: calculated EC50
Method: as §1, §2

[2] = test system: hepatocyte cell line HepG2; test: Toxicity on hepatocyte cell line HepG2 (MTT test); assay type: cell-based; details: for CD50 (cytotoxic concentration leading to reduction of 50% of the cell number compared to untreated cells): HepG2, 72 h, MTT test
Method: PACLP and paclitaxel were evaluated in vitro using hepatocyte cell line HepG2. Cells were cultured in 96 well plates at a cell density of 20000 cell/well and treated with increasing concentrations of both PACLP and paclitaxel (0-1000 μM) for 72 h. Control cells were treated with an absolute ethanol, diluted in the same way as the tested substances. Cytotoxicity was measured using the MTT test. All experiments were carried out in triplicates and each test was repeated three times.
CD50 (the cytotoxic concentration leading to reduction of 50% of the cell number compared to untreated cells) was at concentration of 5 μM and 100 μM, and 500 μM for paclitaxel, PACLP, and the solvent, respectively.

[3] = test system: endothelial cells of human (H-1044 EC p7 naïve); test: Effect on endothelial cell proliferation (cell count); assay type: cell-based; details: 48 hours, in words
Method: The test was conducted using endothelial cells of human (H-1044 EC p7 naïve). 70,000 cells were grown in each well. After the cells have adhered for 3 hours, the material (paclitaxel or PACLP) was added to the cells. After 48 hours of cell growth the cells were detached by trypsin and counted. The results are set in.

6 cancer cell lines = test: In vitro anti-tumor activity on 6 cancer cell lines (overall comparison); assay type: cell-based; details: in words
Method: as §1, §2

Balb/c mice = test: LD50 test using Balb/c mice; assay type: in vivo; details: 80-140 mg/kg, observed 4 weeks after injection
Method: Balb/c mice were divided into 9 groups, 8 mice in each group (4 males and 4 females). Group one, the control group, were given 50 μl solvent with 150 μL normal saline. Groups 2, 3, 4 and 5 were given 125, 150, 175, 200 mg/kg of PACLP respectively. Groups 6, 7, 8 and 9 were given 80, 100, 120, 140 mg/kg of paclitaxel respectively. Mice were observed 4 weeks after injection. The results are set in FIG. 6. Most of the animals died within the first week after treatment.

**Q.** How did the EC50 (A549 lung cancer) turn out when `CC(=O)O[C@H]1C(=O)[C@@]2(C)[C@H]([C@H](OC(=O)c3ccccc3)[C@]3(O)C[C@H](OC(=O)[C@H](OC(=O)CCCCC4CCSS4)[C@@H](NC(=O)c4ccccc4)c4ccccc4)C(C)=C1C3(C)C)[C@]1(OC(C)=O)CO[C@@H]1C[C@@H]2O` (stereo partly drawn) [PACLP, Paclitaxel-lipoate] was run?
**A.** 2.5 µg/mL (≈ 2.4 µM)

**Q.** And the EC50 (CAPAN)?
**A.** 5 µg/mL (≈ 4.8 µM)

**Q.** And the EC50 [1]?
**A.** 1.5 µg/mL (≈ 1.44 µM)

**Q.** And the EC50 (HeLa cell line)?
**A.** 1.5 µg/mL (≈ 1.44 µM)

**Q.** What about the EC50 (PC3 prostate carcinoma) of the same molecule?
**A.** 3.5 µg/mL (≈ 3.36 µM)

**Q.** And the EC50 (SKBR3 breast carcinoma)?
**A.** 2 µg/mL (≈ 1.92 µM)

**Q.** What about the “CD50 (cytotoxic concentration leading to reduction of 50% of the cell number compared to untreated cells)” value [2] of the same molecule?
**A.** 100 µM

**Q.** What about the “cytotoxicity compared to paclitaxel” value ([2]; hepatocyte cell line HepG2, in words) of the same molecule?
**A.** less cytotoxic

**Q.** What about the “cytotoxicity compared to paclitaxel” value [3] of the same molecule?
**A.** less cytotoxic

**Q.** And the “anti-tumor activity compared to free paclitaxel” value (6 cancer cell lines)?
**A.** greater anti-tumor activity; also recorded: somewhat more effective than paclitaxel

**Q.** `CC(=O)O[C@H]1C(=O)[C@@]2(C)[C@H]([C@H](OC(=O)c3ccccc3)[C@]3(O)C[C@H](OC(=O)[C@H](O)[C@@H](NC(=O)c4ccccc4)c4ccccc4)C(C)=C1C3(C)C)[C@]1(OC(C)=O)CO[C@@H]1C[C@@H]2O` [paclitaxel, reference compound] was tested. Which EC50 (A549 lung cancer) did it give?
**A.** 5.5 µg/mL (≈ 6.44 µM)

**Q.** And the EC50 (CAPAN)?
**A.** 11 µg/mL (≈ 12.9 µM)

**Q.** And the EC50 [1]?
**A.** 9 µg/mL (≈ 10.5 µM)

**Q.** And the EC50 (HeLa cell line)?
**A.** 9 µg/mL (≈ 10.5 µM)

**Q.** And the EC50 (PC3 prostate carcinoma)?
**A.** 12 µg/mL (≈ 14.1 µM)

**Q.** What about the EC50 (SKBR3 breast carcinoma) of the same molecule?
**A.** 19 µg/mL (≈ 22.3 µM)

**Q.** And the “CD50 (cytotoxic concentration leading to reduction of 50% of the cell number compared to untreated cells)” value [2]?
**A.** 5 µM

**Q.** What about the observation before death (Balb/c mice) of the same molecule?
**A.** swelling and redness before death
